Reference: patent publication US20250282785A1, “PYRROLIDINONE DERIVATIVES AS INHIBITORS OF NF KAPPA B INDUCING KINASE” (priority 2022, published 2025)

Columns and labels:
[1] = biological target: Recombinant Human NF-Kappab-Inducing Kinase (NIK/MAP3K14) (Homo sapiens, UniProt Q99558); experiment: Inhibition of auto-phosphorylation of recombinant human NIK/MAP3K14 (AlphaScreen); type: biochemical; details: NIK/MAP3K14 auto-phosphorylation, 5 microM ATP, 1 nM enzyme, 2 h at 25° C.; average of values; read-out: Assay 1 IC50
Recombinant Human NF-Kappab-Inducing Kinase (NIK/MAP3K14), sequence (Q99558 whole entry): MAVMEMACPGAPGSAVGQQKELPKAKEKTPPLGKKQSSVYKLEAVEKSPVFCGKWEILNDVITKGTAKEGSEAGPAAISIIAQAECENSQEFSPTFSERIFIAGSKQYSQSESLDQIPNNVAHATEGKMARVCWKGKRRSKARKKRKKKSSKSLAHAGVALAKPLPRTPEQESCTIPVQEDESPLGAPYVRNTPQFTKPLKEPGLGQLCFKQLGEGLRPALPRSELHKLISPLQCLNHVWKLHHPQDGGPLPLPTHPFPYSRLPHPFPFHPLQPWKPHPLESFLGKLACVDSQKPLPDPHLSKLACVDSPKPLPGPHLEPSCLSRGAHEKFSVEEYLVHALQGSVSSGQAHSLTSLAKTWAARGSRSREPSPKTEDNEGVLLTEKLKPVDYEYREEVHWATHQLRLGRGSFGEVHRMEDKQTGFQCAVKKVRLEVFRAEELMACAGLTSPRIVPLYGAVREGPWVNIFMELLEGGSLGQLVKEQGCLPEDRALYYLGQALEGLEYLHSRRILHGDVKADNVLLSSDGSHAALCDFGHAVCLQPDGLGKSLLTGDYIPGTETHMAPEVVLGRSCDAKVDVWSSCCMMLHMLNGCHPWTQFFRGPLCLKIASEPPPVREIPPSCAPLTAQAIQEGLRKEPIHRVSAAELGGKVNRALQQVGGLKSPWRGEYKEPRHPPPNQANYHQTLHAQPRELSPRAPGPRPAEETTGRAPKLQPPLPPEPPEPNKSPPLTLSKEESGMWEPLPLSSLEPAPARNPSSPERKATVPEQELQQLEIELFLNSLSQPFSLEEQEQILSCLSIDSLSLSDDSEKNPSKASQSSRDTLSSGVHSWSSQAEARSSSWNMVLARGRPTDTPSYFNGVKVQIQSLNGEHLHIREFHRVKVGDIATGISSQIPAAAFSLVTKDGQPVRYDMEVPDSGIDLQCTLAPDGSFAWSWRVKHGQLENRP
Summary of the method: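 GST-tagged NIK (1 nM) auto-phosphorylation with 5 µM ATP in Tris pH 7.5/MgCl2 buffer, 0.7% DMSO, 2 h at 25 °C. Phospho-IKK Ser176/180 antibody detected by AlphaScreen beads. Signal normalized to full-enzyme and no-ATP controls; IC50 from sigmoidal fit of % inhibition vs log concentration.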

[2] = tested on: p-IKKα levels in L363 (NIK translocated multiple myeloma) cells; experiment: Effect of compounds on p-IKKα levels in L363 cells (AlphaLISA SureFire Ultra); type: cell-based; details: Homo sapiens, L-363; L363 cells, BAFF stimulated, MG132, 6 h; average of values; read-out: Assay 2 IC50
Summary of the method: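 L363 myeloma cells were BAFF-stimulated (250 ng/ml) overnight in DMEM/0.5% BSA, then exposed 6 h at 37° C to compound (11-point 1:3 series, 0.3% DMSO) with BAFF plus 10 uM MG132. p-IKKα (Ser 176/180) was read by AlphaLISA SureFire Ultra in lysates. IC50 came from sigmoidal fits normalized to stimulated and unstimulated controls.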

COc1cc(-c2cccc(-c3cc([C@]4(O)CCN(C)C4=O)on3)c2)nc(C(N)=O)c1N [Example 46, (R)-3-Amino-6-(3-(5-(3-hydroxy-1-methyl-2-oxopyrrolidin-3-yl)isoxazol-3-yl)phenyl)-4-methoxypicolinamide]
IC50 [1]: < 100 nM | IC50 [2]: < 100 nM

CN1CC[C@@](O)(c2cc([C@@H]3CCCN(c4ccc5ncnc(N)c5n4)C3)no2)C1=O (single isomer, unassigned) [Example 202]
IC50 [1]: < 100 nM | IC50 [2]: > 501 nM

CN1CC[C@@](O)(c2cc(-c3cccc(-c4ccn5nccc5c4)c3)no2)C1=O [Example 58, (R)-3-hydroxy-1-methyl-3-(3-(3-(pyrazolo[1,5-a]pyridin-5-yl)phenyl)isoxazol-5-yl)pyrrolidin-2-one]
IC50 [1]: 100 to 500 nM | IC50 [2]: > 501 nM

CN1CC[C@@](O)(c2cc(-c3cccc(-c4nc(C(N)=O)c(N)c(C5CC5)n4)c3)no2)C1=O [Example 132, (R)-5-Amino-6-cyclopropyl-2-(3-(5-(3-hydroxy-1-methyl-2-oxopyrrolidin-3-yl)isoxazol-3-yl)phenyl)pyrimidine-4-carboxamide]
IC50 [1]: < 100 nM | IC50 [2]: < 100 nM

CN1CC[C@@](O)(c2cc(-c3cccc(-c4ncc(C(N)=O)s4)c3)no2)C1=O [Example 212, (R)-2-(3-(5-(3-hydroxy-1-methyl-2-oxopyrrolidin-3-yl)isoxazol-3-yl)phenyl)thiazole-5-carboxamide]
IC50 [1]: > 501 nM | IC50 [2]: > 501 nM

CN1CC[C@@](O)(c2cc(-c3cccc(-c4c[nH]c5ncccc45)c3)no2)C1=O [Example 24, (R)-3-(3-(3-(1H-Pyrrolo[2,3-b]pyridin-3-yl)phenyl)isoxazol-5-yl)-3-hydroxy-1-methylpyrrolidin-2-one]
IC50 [1]: 100 to 500 nM | IC50 [2]: > 501 nM

[2H]C1([2H])N(C)C(=O)[C@](O)(c2cc(-c3cccc(-c4nc(C(N)=O)n5c4CCCC5)c3)no2)C1([2H])[2H] [Example 180, (R)-1-(3-(5-(3-Hydroxy-1-methyl-2-oxopyrrolidin-3-yl-4,4,5,5-d4)isoxazol-3-yl)phenyl)-5,6,7,8-tetrahydroimidazo[1,5-a]pyridine-3-carboxamide]
IC50 [1]: < 100 nM | IC50 [2]: 100 to 500 nM

CN1CC[C@@](O)(c2cc(C3CCCN(c4ccc5ncnc(N)c5n4)C3)no2)C1=O (mixture of isomers) [Example 201, (3R)-3-(3-(1-(4-Aminopyrido[3,2-d]pyrimidin-6-yl)piperidin-3-yl)isoxazol-5-yl)-3-hydroxy-1-methylpyrrolidin-2-one]
IC50 [1]: < 100 nM | IC50 [2]: > 501 nM

Cc1nc(N)c2nc(-c3cc(-c4cc([C@]5(O)CCN(C)C5=O)on4)ccn3)ccc2n1 [Example 170, (R)-3-(3-(2-(4-Amino-2-methylpyrido[3,2-d]pyrimidin-6-yl)pyridin-4-yl)isoxazol-5-yl)-3-hydroxy-1-methylpyrrolidin-2-one]
IC50 [1]: < 100 nM | IC50 [2]: > 501 nM

COc1cc(-c2cccc(-c3cc([C@]4(O)CCN(C)C4=O)on3)c2)nc2c1cnn2C [Example 48, (R)-3-Hydroxy-3-(3-(3-(4-methoxy-1-methyl-1H-pyrazolo[3,4-b]pyridin-6-yl)phenyl)isoxazol-5-yl)-1-methylpyrrolidin-2-one]
IC50 [1]: < 100 nM | IC50 [2]: > 501 nM

CN1CC[C@@](O)(c2cc(-c3cccc(-c4nc(C(N)=O)c(C5CCC5)s4)c3)no2)C1=O [Example 221, (R)-5-Cyclobutyl-2-(3-(5-(3-hydroxy-1-methyl-2-oxopyrrolidin-3-yl)isoxazol-3-yl)phenyl)thiazole-4-carboxamide]
IC50 [1]: < 100 nM | IC50 [2]: > 501 nM

CN1CCC(O)(c2cc(-c3cccc(Nc4nc5c(N)ncnc5s4)c3)on2)C1=O (racemic) [Example 176, (R,S)-3-(5-(3-((7-Aminothiazolo[5,4-d]pyrimidin-2-yl)amino)phenyl)isoxazol-3-yl)-3-hydroxy-1-methylpyrrolidin-2-one]
IC50 [1]: > 501 nM | IC50 [2]: > 501 nM
